Here are results for four compounds from patent US12703693B2, “Crystalline forms of N-{3-[(1S)-1-{[6-(3,4-dimethoxyphenyl)pyrazin-2-yl]amino}ethyl]phenyl}-5-methylpyridine-3-carboxamide and related products and methods” (GB002, INC., priority 2021, dated 2026).

A short description of series [1]: Solvent solubility of amorphous Compound 1 (solvent aliquot addition). The class given is physicochemical. The following applies: thermodynamic from solid. The method, then: Test solvent/solvent system (50 μL) was added to the vial and the mixture assessed for dissolution. If no dissolution was apparent, the mixture was heated to ca. 40° C. and reassessed; if dissolution was still incomplete, the cycle was repeated and an additional 50 μL of solvent added. After 300 μL of solvent had been added, 100 μL aliquots were added. This procedure was continued until complete dissolution was observed or until 1 mL of solvent had been added.

Series [2] is described as follows: Fragility and relaxation time (Tg vs heating rate by DSC). The class given is physicochemical. The following applies: 25° C.; calculated from fragility parameters (γ=0.9, τ0=10^−14 s). The method, then:
Fragility and relaxation time parameters were determined by measuring Tg as a function of heating rate. Four heating rates were used: 1, 5, 10 and 20° C./min. DSC measurements were made by: • (1) heating at 10° C./min to 100° C.; • (2) isothermal hold for 5 min; • (3) cooling at 10° C./min to −20° C.; • (4) isothermal hold for 5 min; and • (5) heating at 10° C./min to 130° C.
The slope was used to calculate the activation enthalpy (ΔH*), from which the fragility parameters m, D and T0 were calculated, according to the following equations:
Using the fragility parameters, the initial structural relaxation time was calculated according to the following formula, (using γ=0.9 and τ0=10^−14 s) and determined to be 3 months at 25° C.

Series [3] in a line: Solubility in ethanol/water mixtures.
Experimental: (§1) Phosphate Buffer contained NaH2PO4·H2O (0.345 g), sodium hydroxide aqueous solution (0.2M, 10.001 mL), sodium chloride (0.576 g) and water (qs ad 100.0 mL); • Ethanol/Water (30/70) contained Ethanol (30.0 g) and Water (70.0 g); • Ethanol/Water (40/60) contained Ethanol (40.0 g) and Water (60.0 g); • Ethanol/Water (50/50) contained Ethanol (50.0 g) and Water (50.0 g); and • Ethanol/Water (45/55) contained Ethanol (4.50 g) and Water (5.51 g).
Series [4] is described as follows: Solubility in 25 mM phosphate buffer pH 7.4.
Experimental: as §1
Series [5] in a line: Sample stress, 40° C. and 75% relative humidity, XRPD. Format: physicochemical. The following applies: open vial, 6 days. The method, then: Two samples, one containing pure crystalline Form A of Compound 1 and a second containing a mixture of crystalline Forms A and B of Compound 1 were placed in an open vial at 40° C. and 75% relative humidity for 6 days and then analyzed by XRPD. The results are presented in Table 11; no changes by XRPD were observed.

Another series can be described thus: physchem. To be noted: 22 °C, aqueous with cosolvent or surfactant or cyclodextrin, thermodynamic from solid.
Series [6] in a line: Thermodynamic solubility in pH 3, 4.5, 6.8 buffers and deionized water. The following applies: for pH (24 h): ~24 h agitation at ambient temperature.
The nature of series [7]: Solubility in ethyl acetate and ethyl acetate+2% water (Crystal16 parallel crystallizer). The class given is physicochemical. The following applies: presence of water (2%). The method, then:
The solubility of crystalline Forms A and B of Compound 1 in ethyl acetate was determined using a Crystal16® parallel crystallizer. Two heating rates were used, 1° C./min and 0.5° C./min. The suspensions were heated to 78° C. and cooled to 10° C. at 0.2° C./min and maintained for 2 h at 10° C. […] The suspensions were heated to 78° C. at 1° C./min, cooled to 10° C. at 0.2° C./min and maintained for 2 h at 10° C. FIG. 15 compares the resulting solubility curve with the pure ethyl acetate.

The nature of series [8]: Particle size distribution (PSD) of micronized / spray dried material. The following applies: Example 9 wet milling, 5% w/w in water, 45 cycles/P = 50 bar. Format: physicochemical. The source says: Crystalline Compound 1 Form A was fed into a grinding chamber tangentially by vacuum created by the venturi system using pressurized nitrogen (venturi pressure, Pvent, above grind pressure, Pgrind). Compressed nitrogen was also used for the jet nozzles in the walls of the chamber. The feed flow rate was set and controlled automatically (by a gravimetric feeder) or manually. Once inside the milling chamber particles were accelerated by a series of perimeter jets, in a spiral movement. The compressed fluid issuing from the nozzles expands from Pgrind and imparts very high rotational speeds in the chamber. The micronizing effect occurs when the slower incoming particles and the faster particles in the spiral path collide. While centrifugal force retains the larger particles at the periphery of the milling chamber, the smaller particles exit with the exhaust gas from the center of the chamber. Five 20 g trials were performed in a 1.5″ jet mill, under varying feed rates (Ffeed,JM,) and pressures; the optimal conditions were used for a sixth larger scale 50 g trial.
Aqueous suspensions of crystalline Compound 1 Form A in water (5% w/w or 10% w/w) were processed via microfluidization with a HPH18 (M-110EH-30 Microfluidics Pilot) wet milling apparatus equipped with an auxiliary processing module (200 μm) and an interaction chamber (Z-shape, 100 μm). The unit was initiated at a given pressure for the first five cycles to perform a pre-milling of the suspension, using only the auxiliary processing module (200 μm). The interaction chamber (100 μm) was then introduced and the suspension processed at a defined pressure. The temperature was controlled, using a reactor jacket, and recorded. To address clogging of the micronization chambers (observed after ~25 cycles), the pressure was increased from 25 to 60 bar.
The material isolated from the first run 1A, was dived into three (1BI, 1BII and 1BIII); runs 2A and 3A were spray dried to produce samples 2B and 3B, respectively. […] Runs 2B and 3B were additionally characterized for specific surface area (SSA). See Table 27 (runs 1BI, 1BII and 1BIII) and Table 28 (runs 2B and 3B) for conditions and product characterization. […]
Two 250 g batches of crystalline Compound 1 Form A were each suspended in water (5 L) and wet polished in a wet milling HPH18 (M-110EH-30 Microfluidics Pilot) apparatus, equipped with an auxiliary processing module (200 μm) and an interaction chamber (Z-shape, 100 μm). The unit was initiated at 50 bar for the first five cycles to perform a pre-milling of the suspension, using only the auxiliary processing module (200 μm). The interaction chamber (100 μm) was then introduced and the suspension processed at 50 bar (increased to 60 or 70 bar if the system clogged). The temperature was maintained at 18-28° C. using a reactor jacket. The Reactor agitation speed was 280 RPM (batch 1) and 390 RPM (batch 2). The first batch was micronized for 25 cycles and particle size distribution analyzed after 5, 15 and 20 cycles; the second batch was micronized for […] and particle size distribution analyzed after 15, 20, 25 and 35 cycles.
Both batches were then spray dried (separately) using a Büchi spray dryer, using an open loop system. The unit was equipped with a two-fluid nozzle: cap and orifice diameters of 1.5 and 0.7 mm, respectively operated with nitrogen. The aspirator, blowing nitrogen, was set at 100% capacity (~40 kg/h). The suspension feed flow was set to 8 ml/min, high and the drying outlet temperature to 75±1° C. […] Total yield (both batches combined) was 267 g (53%).
Two 250 g batches (250 g and 238 g; 488 g total) of crystalline Compound 1 Form A coated with ~2% L-leucine were each suspended in water (5 L) and wet polished in a wet milling HPH18 (M-110EH-30 Microfluidics Pilot) apparatus, under the same process as described in the previous example. The first batch was micronized for 25 cycles and the second for 30 cycles. […]

Series [9] is described as follows: Physical stability, 1 week storage (HPLC purity, XRPD). The class given is physicochemical. The method, then:
Two vials each were then stored for 1 week under various conditions of temperature and relative humidity.
XRPD analysis was performed to detect changes in crystallinity.

A short description of series [10]: Gravimetric Vapor Sorption (GVS). Format: physicochemical. To be noted: 25° C. The method, then: Approximately 10-20 mg of crystalline Form A of Compound 1 was placed into a mesh vapor sorption balance pan and loaded into an IGASorp Moisture Sorption Analyzer balance by Hiden Analytical. The sample was subjected to a ramping profile from 40-90% relative humidity (RH) at 10% increments, maintaining the sample at each step until a stable weight had been achieved (98% step completion, minimum step length 30 minutes, maximum step length 60 minutes) at 25° C. After completion of the sorption cycle, the sample was dried using the same procedure to 0% RH, and finally taken back to the starting point of 40% RH. Two cycles were performed. The weight change during the sorption/desorption cycles were plotted, allowing for the hygroscopic nature of the sample to be determined.

Where [11] appears, read: EtOH/H2O (w:w) 50:50, top layer after centrifugation, 22° C.

Converted amounts (≈) assume the structure as drawn. Marks after values point to notes of the source that are not given here.

Experimental for physchem: as §1

As to `COc1ccc(-c2cncc(N[C@@H](C)c3cccc(NC(=O)c4cncc(C)c4)c3)n2)cc1OC` [Amorphous Compound 1, N-{3-[(1S)-1-{[6-(3,4-dimethoxyphenyl)pyrazin-2-yl]amino}ethyl]phenyl}-5-methylpyridine-3-carboxamide], the solubility in series [1] (2-propanol, organic solvent or mixture) was at least 200 mg/mL; in series [1] (EtOAc/tBME (75:25% v/v), organic solvent or mixture), at least 200 mg/mL; in series [1] (acetone, organic solvent or mixture), at least 200 mg/mL; in [1] (acetonitrile, organic solvent or mixture), at least 200 mg/mL; in [1] (chloroform, organic solvent or mixture), at least 200 mg/mL; in series [1] (ethanol, organic solvent or mixture), at least 200 mg/mL. Further, the solubility was at least 200 mg/mL in [1] (ethanol/water (95:5% v/v), organic solvent or mixture); at least 200 mg/mL in series [1] (ethyl acetate, organic solvent or mixture); below 10 mg/mL in series [1] (heptane, organic solvent or mixture); at least 200 mg/mL in [1] (methanol, organic solvent or mixture); at least 200 mg/mL in [1] (methyl ethyl ketone, organic solvent or mixture); around 12.5 mg/mL (≈ 26.6 mM) in series [1] (organic solvent or mixture, EtOAc/tBME (25:75% v/v), sample heated to 40° C.). The solubility is around 100 mg/mL (≈ 213 mM) in series [1] (organic solvent or mixture, EtOAc/tBME (50:50% v/v), sample heated to 40° C.); below 10 mg/mL in series [1] (tert-butyl methyl ether, organic solvent or mixture); at least 200 mg/mL in series [1] (tetrahydrofuran, organic solvent or mixture); below 10 mg/mL in series [1] (toluene, organic solvent or mixture); below 10 mg/mL in [1] (water). The “initial structural relaxation time” value in series [2] is given as 3 months.

Regarding `COc1ccc(-c2cncc(N[C@@H](C)c3cccc(NC(=O)c4cncc(C)c4)c3)n2)cc1OC` [Crystalline], the “Solubility 4 Hours” value in series [3] (EtOH/H2O (w:w) 40:60, 22° C.) is 18.9 mg/mL (≈ 40.3 mM); in series [3] (EtOH/H2O (w:w) 45:55, 22° C.), 53.3 mg/mL (≈ 114 mM); in series [3] (EtOH/H2O (w:w) 50:50, bottom layer after centrifugation, 22° C.) it was 222 mg/mL (≈ 473 mM); in series [3] (setting [11]) it was 125 mg/mL (≈ 266 mM). The “Solubility 24 Hours” value is recorded as 18.3 mg/mL (≈ 39 mM) in [3] (EtOH/H2O (w:w) 40:60, 22° C.); 43.3 mg/mL (≈ 92.2 mM) in series [3] (EtOH/H2O (w:w) 45:55, 22° C.); 362* mg/mL in series [3] (EtOH/H2O (w:w) 50:50, bottom layer after centrifugation, 22° C., result outside calibration curve); 177 mg/mL (≈ 377 mM) in series [3] (setting [11]). Besides, the “Solubility Average” value in [3] (EtOH/H2O (w:w) 40:60, 22° C.) is 18.6 mg/mL (≈ 39.6 mM); in series [3] (EtOH/H2O (w:w) 45:55, 22° C.), 48.3 mg/mL (≈ 103 mM). The solubility worked out at 0.00316 mg/mL (≈ 0.00673 mM) in series [4] (25 mM phosphate buffer pH 7.4, equil time 4 hrs) and 0.00305 mg/mL (≈ 0.0065 mM) in series [4] (25 mM phosphate buffer pH 7.4, equil time 24 hrs).

As to `COc1ccc(-c2cncc(N[C@@H](C)c3cccc(NC(=O)c4cncc(C)c4)c3)n2)cc1OC` [Form A + form B (minor)], the “XRPD observation after stress conditions” value in series [5] is on record as “No change - Form A +”.

As for `COc1ccc(-c2cncc(N[C@@H](C)c3cccc(NC(=O)c4cncc(C)c4)c3)n2)cc1OC` [Form A, N-{3-[(1S)-1-{[6-(3,4-dimethoxyphenyl)pyrazin-2-yl]amino}ethyl]phenyl}-5-methylpyridine-3-carboxamide], in “physchem”, the solubility lay within 2 to 350 mg/mL (≈ 4.26 to 745 mM). Also, the “pH (Initial)” value in [6] (Water, after addition) stood at 6.78; in series [6] (pH 3 buffer, after buffer addition) it was 2.96; in series [6] (pH 4.5 buffer, after buffer addition), 4.55; in series [6] (pH 6.8 buffer, after buffer addition) it was 6.83. The “pH (24 h)” value in series [6] (Water) came out at 6.73; in series [6] (pH 3 buffer) it was 2.94; in [6] (pH 4.5 buffer), 4.55; in series [6] (pH 6.8 buffer), 6.79. Moreover, in series [6] (all buffers (pH 3, 4.5, 6.8) and water, ambient temperature, ~24 h), the “Compound 1 concentration in filtered mother liquors (HPLC)” value was below 0.05 mg/mL. Also, in series [4] (phosphate buffer, pH 7.4), the “solubility in phosphate buffer” value is on record as “moderate solubility”. Besides, in series [7], the “solubility in ethyl acetate+2% water compared to pure ethyl acetate” value is “significantly more soluble”. Moreover, the Dv10 in [8] is reported as 0.1 μm. This compound also registered a Dv50 in series [8] of 1.0 μm. This compound yielded a Dv90 in [8] of 3.5 μm. Also, the “Purity (HPLC)” value in series [9] (1 week, 25° C./60% relative humidity (open vial)) is around 99.1%; in series [9] (1 week, 40° C./75% relative humidity (open vial)) it was around 99.1%; in series [9] (1 week, 80° C. (closed vial)), around 99.0%; in series [9] (1 week, Ambient light/temperature (closed vial)), around 98.9%; in series [9] (Before storage), around 99.3%. Further, the “crystalline form by XRPD after storage” value in [9] (one week, ambient, 25° C., 40° C., 80° C., relative humidity ambient, 60%, 75%) is “maintained”. For the same compound, in [5], the “XRPD observation after stress conditions” value is “No change - all Form A”. Besides, the “hygroscopic nature (GVS)” value in [10] (two sorption/desorption cycles) is on record as “slightly hygroscopic”. The GVS mass increase in series [10] (up to 90% relative humidity) is around 0.7%.
